{
  "source": "patent US9487530B2",
  "about": "“Transient protection of normal cells during chemotherapy” (G1 Therapeutics, Inc., priority 2013, dated 2016)",
  "key": {"[1]": {"test_system": "456 (395 non-mutant) kinases", "assay": "DiscoveRx KINOMEscan profiling", "format": "binding", "conditions": "1000 nM", "experimental": "The compound was screened using a single concentration of 1000 nM (>1000 times the 1050 on Cdk4). Results from this screen confirmed the high potency against Cdk4 and high selectivity versus Cdk2."}, "[2]": {"assay": "Metabolic stability in liver microsomes", "format": "in vitro ADME", "conditions": "each of the species tested (human, monkey, dog, rat, mouse); 1 uM", "experimental": "Human, mouse, and dog liver microsomes were purchased from Xenotech, and Sprague-Dawley rat liver microsomes were prepared by Absorption Systems. The reaction mixture comprising 0.5 mg/mL of liver microsomes, 100 mM of potassium phosphate, pH 7.4, 5 mM of magnesium chloride, and 1 uM of test compound was prepared. The test compound was added into the reaction mixture at a final concentration of 1 uM. An aliquot of the reaction mixture (without cofactor) was incubated in shaking water bath at 37 deg. C. for 3 minutes. The control compound, testosterone, was run simultaneously with the test compound in a separate reaction. The reaction was initiated by the addition of cofactor (NADPH), and the mixture was then incubated in a shaking water bath at 37 deg. C. Aliquots (100 μL) were withdrawn at 0, 10, 20, 30, and 60 minutes for the test compound and 0, 10, 30, and 60 minutes for testosterone. […] Test compound samples were analyzed using the Orbitrap high resolution mass spectrometer to quantify the disappearance of parent test compound and detect the appearance of metabolites. […] Half-lives were calculated using GraphPad software, fitting to a single-phase exponential decay equation.\nWhen calculated half-life was longer than the duration of the experiment, the half-life was expressed as >the longest incubation time. The calculated half-life is also listed in parentheses. […]"}, "HSPCs": {"test_system": "HSPCs", "assay": "Bone marrow HSPC proliferation by EdU incorporation and flow cytometry", "format": "in vivo, mouse", "experimental": "Mice were then sacrificed at the indicated times (0, 12, 24, 36, or 48 hours following compound administration), and bone marrow was harvested (n=3 mice per time point), as previously described (Johnson et al. J. Clin. Invest. (2010) 120(7), 2528-2536). Four hours before the bone marrow was harvested, mice were treated with 100 μg of EdU by intraperitoneal injection (Invitrogen). Bone marrow mononuclear cells were harvested and immunophenotyped using previously described methods and percent EdU positive cells were then determined (Johnson et al. J. Clin. Invest. (2010) 120(7), 2528-2536). In brief, HSPCs were identified by expression of lineage markers (Lin−), ScaI (S+), and c-Kit (K+).\nFour hours before animals were sacrificed and the bone marrow was harvested, mice were treated with 100 μg of EdU by intraperitoneal injection. Three mice per group were sacrificed at 12 hours and the remaining three animals per group were sacrificed at 24 hours. Results are shown in FIG. 6A as the ratio of EdU positive cells for treated animals at 12 or 24 hour time points compared to control.\nFurther experiments were completed with Compound T examining dose response and longer periods of compound treatment. […] […].\nBoth compounds were administered at 150 mg/kg by oral gavage. One hour prior to harvesting bone marrow, EdU was IP injected to label cycling cells. Bone marrow was harvested at 12, 24, 36, and 48 hours after compound treatment and the percentage of EdU positive HSPC cells was determined at each time point."}, "[3]": {"test_system": "tHS68 cells (CDK4/6-dependent cell line)", "assay": "Cell cycle arrest (propidium iodide), tHS68", "format": "cell-based", "conditions": "300 nM for 24 hours", "from_the_text": "(§1) To test the ability of Cdk4/6 inhibitors to induce a clean G1-arrest, a cell based screening method was used consisting of two Cdk4/6-dependent cell lines (tHS68 and WM2664; Rb-positive) and one Cdk4/6-independent (A2058; Rb-negative) cell line. […] At the conclusion of the experiment, cells were harvested, fixed, and stained with propidium iodide (a DNA intercalator), which fluoresces strongly red (emission maximum 637 nm) when excited by 488 nm light. Samples were run on Dako Cyan flow cytometer and >10,000 events were collected for each sample. Data were analyzed using FlowJo 2.2 software developed by TreeStar, Inc."}, "[4]": {"test_system": "WM2664 cells (CDK4/6-dependent cell line)", "assay": "Cell cycle arrest (propidium iodide), WM2664", "format": "cell-based", "conditions": "300 nM for 24 hours", "from_the_text": "as §1"}, "[5]": {"test_system": "Rb-positive cell line (WM2664 or tHS68)", "assay": "EdU proliferation, RB-intact Cdk4/6-dependent cell line", "format": "cell-based", "conditions": "24 hours treatment", "experimental": "The effect of Cdk4/6 inhibition on proliferation was measured by EdU incorporation. An RB-intact, Cdk4/6-dependent cell line (WM2664 or tHS68) and a panel of RB-negative SCLC cell lines (H69, H82, H209, H345, NCI417, or SHP-77) were analyzed for growth inhibition by the various CDK4/6 inhibitors."}, "[6]": {"test_system": "whole bone marrow, HSPC and differentiated hematopoietic cells", "assay": "EdU incorporation in mouse hematopoietic cell lineages", "format": "in vivo", "conditions": "150 mg/kg oral gavage; for inhibition at 150 mg/kg: Mus musculus", "experimental": "Ten-hours later, all mice were given a single i.p. injection of 100 mcg EdU (5-ethynyl-2′-deoxyuridine) to label cells in S-phase of the cell cycle. All treated mice were euthanized 2 hours after EdU injection, bone marrow cells were harvested and processed for flow cytometric analysis of EdU-incorporation (FIG. 13)."}, "blood cell counts": {"test_system": "blood cell counts", "assay": "5FU-induced myelosuppression, repeated cycles", "format": "in vivo, mouse", "conditions": "150 mg/kg oral + 5FU 150 mg/kg every 21 days, 3 cycles; Day 10 of third cycle", "from_the_text": "This was repeated every 21 days for 3 cycles. Blood samples were taken for hematology analysis on Day 10 of Cycles 1-3."}},
  "data": [
    {"smiles": "CN1CCN(c2ccc(Nc3ncc4cc5n(c4n3)C3(CCCCC3)CNC5=O)nc2)CC1", "note": "[T, 2′-((5-(4-methylpiperazin-1-yl)pyridin-2-yl)amino)-7′,8′-dihydro-6′H-spiro[cyclohexane-1,9′-pyrazino[1′,2′:1,5]pyrrolo[2,3-d]pyrimidin]-6′-one]", "values": [
      {"measurement": "number of 395 non-mutant kinases inhibited", "setting": "[1]; inhibitory threshold 65%", "value": "92 (23.3%)"},
      {"measurement": "number of 395 non-mutant kinases inhibited", "setting": "[1]; inhibitory threshold 90%", "value": "31 (7.8%)"},
      {"measurement": "number of 395 non-mutant kinases inhibited", "setting": "[1]; inhibitory threshold 99%", "value": "6 (1.5%)"},
      {"measurement": "half-life in liver microsomes", "setting": "[2]", "value": "shorter half-life than PD0332991"},
      {"measurement": "EdU incorporation into HSPCs compared to control", "setting": "HSPCs; 150 mg/kg oral gavage, 12 and 24 hours, FIG. 6A", "value": "reduction in EdU incorporation at 12 hours which was starting to return to normal at 24 hours"},
      {"measurement": "time by which proliferation of HSPCs resumes", "setting": "HSPCs; single 150 mg/kg oral dose, FIG. 7", "value": "≤ 24", "unit": "h"},
      {"measurement": "S-phase peak", "setting": "[3]", "value": "causes a loss of the S-phase peak"},
      {"measurement": "S-phase peak", "setting": "[4]", "value": "causes a loss of the S-phase peak"},
      {"measurement": "proliferation (cells in S-phase by EdU)", "setting": "[5]", "value": "inhibits"},
      {"measurement": "reduction in EdU+ cell frequencies", "setting": "[6]; B cell progenitors", "value": "> 80", "unit": "%"},
      {"measurement": "reduction in EdU+ cell frequency", "setting": "[6]; CMP, GMP, MEP and CLP", "value": "76-92%"},
      {"measurement": "reduction in EdU+ cell frequency", "setting": "[6]; Mac1+G1+ myeloid cells", "value": 46, "unit": "%"},
      {"measurement": "reduction in EdU+ cell frequencies", "setting": "[6]; T cell progenitors", "value": "> 99", "unit": "%"},
      {"measurement": "reduction in EdU+ cell frequency", "setting": "[6]; Ter119+ erythroid cells", "value": 58, "unit": "%"},
      {"measurement": "reduction of EdU+ cell frequency", "setting": "[6]; unfractionated whole bone marrow cells", "value": "~70", "unit": "%"},
      {"measurement": "inhibition at 150 mg/kg", "setting": "[6]; Hematopoietic stem cell, hematopoietic stem cells (HSC)", "value": 74, "unit": "%"},
      {"measurement": "inhibition at 150 mg/kg", "setting": "[6]; multipotent progenitors (MPP)", "value": 90, "unit": "%"},
      {"measurement": "myelosuppression with repeated 5FU", "setting": "blood cell counts", "value": "reduced the myelosuppression"}
    ]}
  ]
}
